Data set [1] has as its system PC3 cells. Kind of data set: MTT cell proliferation assay, butaprost-promoted growth. The data set is classed as cell-based. The source says: (§1) PGE2/EP2 signaling has been recognized to play important roles in mediating tumor progression and tumor-associated angiogenesis.
Data set [2] deals with PC3 cells. Kind of data set: Cell invasion across Matrigel-coated filter. The data set is classed as cell-based. The note with it: for Effect on PC3 cell invasion (cells moved across Matrigel-coated filter): butaprost 1 μM.
From the text: as §1

For data set [3], the system named is rat primary hippocampal cultures. The experiment in a line: NMDA-induced LDH release (excitotoxicity) in primary hippocampal cultures. The class given is cell-based. From the text: Excitotoxicity caused by NMDA receptor activation is recognized to induce neuronal apoptosis both in vitro and in vivo in cortical neurons. NMDA receptor activation can, via COX-2, cause prostaglandin production, including PGE2. Activation of the EP2 receptor by PGE2 in microglia can promote neuroinflammation in several models of neurodegenerative diseases. The effect of EP2 antagonist compounds were examined on NMDA-induced excitotoxicity. Rat primary hippocampal cultures (DIV13-15) were preincubated with vehicle or increasing concentrations of test compound for 15-20 min, followed by treatment with NMDA (30 μM) plus glycine (10 μM) overnight in continued presence of the test compound. Lactate dehydrogenase (LDH) release was used as the measure of neuronal injury.
(LDH leaks from cells whose membrane has failed.)

In data set [4] the test system is iNOS, COX-2, IL-1β and IL-6 expression. Kind of data set: qRT-PCR of inflammatory mediators in microglia-enriched cultures. The data set is classed as cell-based, rat. From the text:
Nitric oxide (NO) synthesized by iNOS and prostaglandins produced by COX-2 are effectors of neurotoxicity and neuroinflammation, thus, these two inducible enzymes have been recognized as inflammatory mediators produced in activated microglia. As the dominant enzymatic product of COX-2, PGE2 therefore might play a role in microglia-mediated neuroinflammation and neurodegeneration.
For orientation: In qPCR the cycle at which signal appears reflects the starting amount.

The nature of the next data set: in vitro. The note with it: rat.
In data set [5] the target is T1, EP2 receptor (Homo sapiens, UniProt P43116). Kind of data set: Schild regression of PGE2-induced EP2 activation in C6G-EP2 cells. The class given is cell-based. More on the design: expressed in transfected cells; host or cells: C6G-EP2 cells. Here is the method: Information on the modality of antagonism can be obtained by performing Schild regression analysis characterized by: log (dr−1)=log XB−log KB. In the equation, dose ratio (dr)=fold shift in EC50, XB=[antagonist], KB=equilibrium dissociation constant for the antagonist-receptor complex. […] Thus, a lower KB value indicates a higher inhibitory potency.
T1 sequence (P43116 whole entry): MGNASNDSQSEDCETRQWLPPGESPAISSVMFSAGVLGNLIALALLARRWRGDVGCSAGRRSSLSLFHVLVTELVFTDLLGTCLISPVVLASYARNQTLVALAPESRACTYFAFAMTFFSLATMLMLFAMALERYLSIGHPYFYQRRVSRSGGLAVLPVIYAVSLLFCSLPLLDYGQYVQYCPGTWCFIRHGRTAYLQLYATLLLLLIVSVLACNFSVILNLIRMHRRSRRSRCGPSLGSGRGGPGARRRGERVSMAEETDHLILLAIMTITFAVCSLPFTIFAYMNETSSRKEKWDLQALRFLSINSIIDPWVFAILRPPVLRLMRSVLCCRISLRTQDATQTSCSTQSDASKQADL
To perform the Schild regression, C6G-EP2 cells were incubated first with vehicle, 0.01, 0.1 or 1 μM of test compound for 5 minutes, then with increasing concentrations of PGE2 to activate the EP2 receptor.

Data set [6] concerns the target T1, EP2 receptor. The experiment in a line: Butaprost-induced cAMP accumulation in PC3 cells. The data set is classed as cell-based. More on the design: PC3 cells express a substantially higher level of EP2 than DU145 and LNCap cells; endogenous in cells; host or cells: PC3 cells. As to conditions: concentration-dependent.
From the text: as §1
(cAMP levels reflect the balance of adenylyl cyclase and phosphodiesterase activity.)

Data set [7] has as its system rat microglia-enriched cultures. The experiment in a line: LDH release in microglia-enriched cultures. The data set is classed as cell-based. The note with it: 10 μM, overnight, basal. Here is the method: Microglia are the initial and major mediators of neuroinflammation and neurodegeneration in various models of neurological disorders. EP2 receptor has been reported to regulate microglial activation and subsequent neurotoxicity in several animal models. The effects of EP2 activation in microglia were investigated. Rat microglia-enriched cultures were incubated with vehicle, butaprost, or compound A1 overnight. The cellular viability was evaluated by measuring Lactate dehydrogenase (LDH) release.

“Also recorded” adds a separate entry of the source.

By EC50 is commonly meant the midpoint of the concentration-response curve. Take `COc1cc(C=CC(=O)NCCn2c(C)cc3ccccc32)cc(OC)c1OC` [A1, N-(2-(2-methyl-1H-indol-1-yl)ethyl)-3-(3,4,5-trimethoxyphenyl)acrylamide]: in the data set on PC3 cells [1] (concentration-dependent), the “Effect on butaprost-induced PC3 cell growth” value is given as “attenuated”. Also, the “Effect on PC3 cell invasion promoted by EP2 activation” value in the data set on PC3 cells [2] (cotreatment 1 μM with butaprost 1 μM) is “inhibited; also recorded: blocked”. Further, the activity at 0.01 µM in data set [3] (Rattus norvegicus, 0.01 μM compound, NMDA 30 μM plus glycine 10 μM overnight, read-out: NMDA-induced LDH release, % of control) is 94%. In addition, in data set [3] (Rattus norvegicus, 0.1 μM compound, NMDA 30 μM plus glycine 10 μM overnight, read-out: NMDA-induced LDH release, % of control), the activity at 0.1 µM came to 87.8%. Moreover, the activity at 1 µM in data set [3] (Rattus norvegicus, 1 μM compound, NMDA 30 μM plus glycine 10 μM overnight, read-out: NMDA-induced LDH release, % of control) was found to be 73.9%. Besides, the activity at 10 µM in data set [3] (Rattus norvegicus, 10 μM compound, NMDA 30 μM plus glycine 10 μM overnight, read-out: NMDA-induced LDH release, % of control) came to 50.8%. Also, the EC50 in data set [3] (rat hippocampal cultures, read-out: EC50 for the reduction of NMDA-induced LDH release) came out at 0.8 µM. The “Effect on butaprost-induced upregulation of inflammatory mediators” value in data set [4] (0.1-10 μM, concentration-dependent) was “inhibited; also recorded: attenuated”. The same compound came in with a CC50 in the data set “in vitro” of 172 µM. Besides, the Schild plot slope at EP2 receptor [5] (C6G-EP2 cells, PGE2) is given as 1.0. On EP2 receptor [5] (Schild plots), the “Modality of antagonism on EP2 receptor” value is given as “competitive antagonism”. In addition, on EP2 receptor [6], the “Inhibition of butaprost-induced EP2 receptor activation” value is “robust competitive inhibition”.
With `CCCC1([C@H](O)C/C=C/[C@H]2[C@H](O)CC(=O)[C@@H]2CCCCCCC(=O)OC)CCC1` [butaprost], in the data set with PC3 cells [1], the Concentration giving maximal response of PC3 cell growth is 1 µM and the “Effect of EP2 activation on PC3 cell growth” value is “promoted PC3 cell growth”. Also, the “Effect on PC3 cell invasion (cells moved across Matrigel-coated filter)” value in the data set with PC3 cells [2] is “promoted cell invasion”. Further, the “Effect on PC3 cell invasion (cells moved across Matrigel-coated filter)” value with PC3 cells [2] (listed as Butaprost) is given as “significantly increased”. Moreover, the “LDH release compared to control” value in data set [7] came to 138%. Further, in data set [4] (butaprost 1 μM, qRT-PCR), the COX-2 expression increase amounted to 16.3 fold, the IL-1β expression increase came to 1.8 fold, the IL-6 expression increase came to 11.1 fold and the iNOS expression increase came to 3.4 fold.

Values taken from patent US10040783B2 (Emory University, priority 2011, dated 2018).
